System: normal human epidermal keratinocytes (NHEK)
Assay: Affymetrix gene array analysis, autoantigen gene expression
Assay type: cell-based
Protocol: The gene array experiment was performed at the Core Facility of Genomics of the Medical College of Georgia, according to the instructions of the manufacturer (Affymetrix, Santa Clara, Calif.). Briefly, NHEK and OSC2 cells treated with 100 μM EGCG for different time period were extracted for total RNA, the RNA was processed for probes and hybridized with a cDNA microarray (HuG133A, Affymetrix) which represents 22,283 human series. DNA chips were read with a Hewlett-Packard GeneArray Scanner at a resolution of […] and were analyzed with the GeneSpring software (Silicon Genetics, Redwood City, Calif.). Details of this analysis will be published elsewhere (Hsu et al., manuscript in preparation).
Gene assays provide a valuable tool for studying the broad response of cells to agents, and we have used this approach to compare the differential effects of GTPP on gene expression in NHEK and human oral squamous carcinoma cells (Hsu, et al, manuscript in preparation). […] See also Hsu, S. et al. (2005) JPET 315:805-811, which is incorporated by reference in its entirety.

Question: What does the source list for O=C(O[C@@H]1Cc2c(O)cc(O)cc2O[C@@H]1c1cc(O)c(O)c(O)c1)c1cc(O)c(O)c(O)c1 [EGCG, (−)-epigallocatechin-3-gallate]?
Answer: Ku autoantigen, 80 kDa (208642_s_at) expression, normalized (24 h, 100 μM): 0.73; Ku autoantigen, 80 kDa (208643_s_at) expression, normalized (24 h, 100 μM): 0.77; Nuclear antigen SP100 (202863_at) expression, normalized (24 h, 100 μM): 0.36; Nuclear antigen SP100 (202864_s_at) expression, normalized (24 h, 100 μM): 0.08; Nuclear antigen SP10075 kDa (213226_at) expression, normalized (24 h, 100 μM): 0.50; RNA polymerase 1 (202692_s-at) expression, normalized (24 h, 100 μM): 0.55; SS-B/La (201138_s_at) expression, normalized (24 h, 100 μM): 0.27; SS-B/La (201139_s_at) expression, normalized (24 h, 100 μM): 0.26; centromere protein C1 (20473_at) expression, normalized (24 h, 100 μM): 0.94; coilin (203653_s_at) expression, normalized (24 h, 100 μM): 0.79; coilin (203654_s_at) expression, normalized (24 h, 100 μM): 0.79; fodrin-α (208611_s_at) expression, normalized (24 h, 100 μM): 0.42; fodrin-α (215235_s_at) expression, normalized (24 h, 100 μM): 0.71; golgin-67 (208797_s_at) expression, normalized (24 h, 100 μM): 0.29; golgin-67 (208798_x_at) expression, normalized (24 h, 100 μM): 0.31; golgin-67 (210425_x_at) expression, normalized (24 h, 100 μM): 0.31; golgin-67 (213650_at) expression, normalized (24 h, 100 μM): 0.72; scleroderma autoantigen 1, 75 kDa (213226_at) expression, normalized (24 h, 100 μM): 0.50; spectrin-β non-erythrocyctic 1 (212071_s_at) expression, normalized (24 h, 100 μM): 0.72; thyroid autoantigen 70 kDa (Ku antigen) (200792_at) expression, normalized (24 h, 100 μM): 0.79; ADPRT [poly(ADP)-ribose polymerase] expression (24 h, 100 μM, vs time zero): 0.85 fold; ANAP12 expression (24 h, 100 μM, vs time zero): 0.198 fold; ANXA11 expression (24 h, 100 μM, vs time zero): 1.946 fold; CALR expression (24 h, 100 μM, vs time zero): 1.528 fold; CBARA1 expression (24 h, 100 μM, vs time zero): 0.721 fold; CENPA expression (24 h, 100 μM, vs time zero): 0.673 fold; CENPB expression (24 h, 100 μM, vs time zero): 0.721 fold; CENPC1 expression (24 h, 100 μM, vs time zero): 0.936 fold; CHD4 expression (24 h, 100 μM, vs time zero): 0.84 fold; COL17A1 expression (24 h, 100 μM, vs time zero): 0.684 fold; CTDSP1 expression (24 h, 100 μM, vs time zero): 1.39 fold; CTDSP2 expression (24 h, 100 μM, vs time zero): 1.71 fold; CTDSPL expression (24 h, 100 μM, vs time zero): 2.10 fold; DLAT expression (24 h, 100 μM, vs time zero): 0.751 fold; EPPK1 expression (24 h, 100 μM, vs time zero): 0.889 fold; FBL expression (24 h, 100 μM, vs time zero): 0.69 fold; FLJ31657 expression (24 h, 100 μM, vs time zero): 0.959 fold; FLNB (Filamin B, β) expression (24 h, 100 μM, vs time zero): 0.249 fold; FLNB (Filamin B, γ) expression (24 h, 100 μM, vs time zero): 0.243 fold; G22P1 (Thyroid autoantigen, 70 kDa, Ku antigen) expression (24 h, 100 μM, vs time zero): 0.792 fold; GMEB2 expression (24 h, 100 μM, vs time zero): 0.745 fold; GOLGA1 expression (24 h, 100 μM, vs time zero): 0.9 fold; GOLGA2 expression (24 h, 100 μM, vs time zero): 0.949 fold; GOLGA3 expression (24 h, 100 μM, vs time zero): 0.419 fold; GOLGA4 expression (24 h, 100 μM, vs time zero): 0.664 fold; GOLGA5 expression (24 h, 100 μM, vs time zero): 1.494 fold; GOLGB1 expression (24 h, 100 μM, vs time zero): 0.688 fold; HARS expression (24 h, 100 μM, vs time zero): 0.72 fold; HARSL expression (24 h, 100 μM, vs time zero): 1.00 fold; HSA6591 expression (24 h, 100 μM, vs time zero): 0.562 fold; HUMAUANTIG expression (24 h, 100 μM, vs time zero): 0.517 fold; IMP-2 expression (24 h, 100 μM, vs time zero): 0.665 fold; LAD1 expression (24 h, 100 μM, vs time zero): 0.553 fold; LMO4 expression (repeat 1) (24 h, 100 μM, vs time zero): 1.011 fold; LMO4 expression (repeat 2) (24 h, 100 μM, vs time zero): 0.659 fold; MGC5560 expression (repeat 1) (24 h, 100 μM, vs time zero): 0.81 fold; MGC5560 expression (repeat 2) (24 h, 100 μM, vs time zero): 0.552 fold; NS (Nucleostemin) expression (24 h, 100 μM, vs time zero): 0.814 fold; PDHB expression (24 h, 100 μM, vs time zero): 0.818 fold; PDX1 expression (24 h, 100 μM, vs time zero): 0.903 fold; PMSCL1, 75 kDa expression (24 h, 100 μM, vs time zero): 0.496 fold; PMSCL2 expression (24 h, 100 μM, vs time zero): 0.717 fold; POLR1B expression (24 h, 100 μM, vs time zero): 1.04 fold; POLR1D expression (24 h, 100 μM, vs time zero): 1.31 fold; POLR2A expression (repeat 1) (24 h, 100 μM, vs time zero): 1.02 fold; POLR2A expression (repeat 2) (24 h, 100 μM, vs time zero): 1.17 fold; POLR2B expression (24 h, 100 μM, vs time zero): 0.74 fold; POLR2C expression (24 h, 100 μM, vs time zero): 1.66 fold; POLR2D expression (24 h, 100 μM, vs time zero): 0.29 fold; POLR2E expression (24 h, 100 μM, vs time zero): 0.39 fold; POLR2F expression (24 h, 100 μM, vs time zero): 0.80 fold; POLR2G expression (24 h, 100 μM, vs time zero): 0.89 fold; POLR2H expression (24 h, 100 μM, vs time zero): 1.15 fold; POLR3C expression (24 h, 100 μM, vs time zero): 0.49 fold; POLR3G expression (24 h, 100 μM, vs time zero): 0.47 fold; PSME3 expression (24 h, 100 μM, vs time zero): 0.421 fold; RALY expression (24 h, 100 μM, vs time zero): 0.612 fold; SART1 expression (24 h, 100 μM, vs time zero): 0.98 fold; SLC25A16 expression (24 h, 100 μM, vs time zero): 1.144 fold; SNRP70 expression (24 h, 100 μM, vs time zero): 0.51 fold; SNRPA expression (24 h, 100 μM, vs time zero): 0.32 fold; SNRPB2 expression (24 h, 100 μM, vs time zero): 0.82 fold; SNRPB expression (repeat 1) (24 h, 100 μM, vs time zero): 0.52 fold; SNRPB expression (repeat 2) (24 h, 100 μM, vs time zero): 0.42 fold; SNRPC expression (24 h, 100 μM, vs time zero): 1.12 fold; SNRPD1 expression (repeat 1) (24 h, 100 μM, vs time zero): 0.425 fold; SNRPD1 expression (repeat 2) (24 h, 100 μM, vs time zero): 0.517 fold; SOX13 expression (24 h, 100 μM, vs time zero): 1.582 fold; SP100 expression (repeat 1) (24 h, 100 μM, vs time zero): 0.356 fold; SP100 expression (repeat 2) (24 h, 100 μM, vs time zero): 0.079 fold; SP110 expression (repeat 1) (24 h, 100 μM, vs time zero): 0.978 fold; SP110 expression (repeat 2) (24 h, 100 μM, vs time zero): 0.654 fold; SP110 expression (repeat 3) (24 h, 100 μM, vs time zero): 0.621 fold; SPTAN1 (α-fodrin) expression (repeat 1) (24 h, 100 μM, vs time zero): 0.42 fold; SPTAN1 (α-fodrin) expression (repeat 2) (24 h, 100 μM, vs time zero): 0.71 fold; SPTBN expression (24 h, 100 μM, vs time zero): 0.72 fold; SSA2 (autoantigen SS-A/Ro) expression (repeat 2) (24 h, 100 μM, vs time zero): 0.88 fold; SSA2 expression (repeat 1) (24 h, 100 μM, vs time zero): 1.17 fold; SSA2 expression (repeat 3) (24 h, 100 μM, vs time zero): 1.556 fold; SSA2 expression (repeat 4) (24 h, 100 μM, vs time zero): 0.94 fold; SSB (autoantigen La) expression (repeat 1) (24 h, 100 μM, vs time zero): 0.273 fold; SSB (autoantigen La) expression (repeat 2) (24 h, 100 μM, vs time zero): 0.257 fold; SSNA1 expression (24 h, 100 μM, vs time zero): 0.943 fold; SSSCA1 expression (24 h, 100 μM, vs time zero): 1.228 fold; STRN3 expression (24 h, 100 μM, vs time zero): 0.759 fold; TOP1 expression (repeat 1) (24 h, 100 μM, vs time zero): 0.12 fold; TOP1 expression (repeat 2) (24 h, 100 μM, vs time zero): 0.43 fold; UBTF expression (24 h, 100 μM, vs time zero): 0.546 fold; XRCC5 (Ku autoantigen, 80 kDa) expression (repeat 1) (24 h, 100 μM, vs time zero): 0.771 fold; XRCC5 (Ku autoantigen, 80 kDa) expression (repeat 2) (24 h, 100 μM, vs time zero): 0.725 fold; dJ963E22.1 expression (24 h, 100 μM, vs time zero): 0.88 fold; α-NAC expression (24 h, 100 μM, vs time zero): 0.469 fold; rapid initial increase of nuclear antigen SP100 and scleroderma autoantigen 1 mRNA (followed by a 2-fold or greater decrease): 2-4 fold; decrease in mRNA levels of RNA polymerase I, SS-B/La, alpha-fodrin and golgin-67 (rapid (0.5-2 hr initiation) and persistent during the 24 hr period): ≥ 2 fold; 60 kDa SS-A/Ro mRNA level (time course up to 24 hr): did not decline significantly
